Laboratory results: a melting point compilation (Tetko et al.; mined from patent text by program, amines drawn as free bases though some values may be those of a salt)

Row | melting point [°C] | SMILES
1 | 158 to 160 | Cc1ccccc1Oc1cccc(CC(=O)O)c1[N+](=O)[O-]
2 | 228 to 230 | CCC(CC)c1ccc(Cl)c2nc3n(c12)CCCN3c1cnc(N(C)C)cc1C
3 | 60 to 63 | CCOC(=O)CCC(=O)Oc1cc([N+](=O)[O-])cc([N+](=O)[O-])c1OC(=O)CCC(=O)OCC
4 | 76 to 78 | CCCOc1ccc(F)cc1C(=O)O
5 | 245 | CCC(OC(C)=O)c1nc2c(C(F)(F)F)cccc2c(O)c1C(=O)Nc1nccs1 (stereo not given)
6 | 165 to 167 | CC(C)C(NC(=O)OCc1csc(N2CCCC2)n1)C(=O)NN(C(=O)OCc1cncs1)C(Cc1ccccc1)CC(O)CCc1ccccc1 (stereo not given)
7 | 286 to 290 | CNC1(C)CN(c2cc3c(cc2F)c(=O)c2c(=O)[nH]sc2n3C2CC2)C1
8 | 125 to 127 | CC(=O)SCCNC(=O)[C@H](CSC(C)=O)NC(=O)C(C)C
9 | 50 to 53 | COc1ccc(C2(C#N)CCC(=NO)CC2)cc1OC1CCCC1 (stereo not given)
10 | 138 to 139 | CSc1ccc(Br)cc1C(=O)Cn1cccc1
11 | 95 to 100 | COc1ccc(Oc2c(C)cc(N)cc2C)cc1C(C)C
12 | 201 to 202 | O=C(OCc1ccccc1)N1CCc2c(sc3nc(CN4C(=O)CCC4=O)c(Cl)c(-c4ccc(C(F)(F)F)cc4)c23)C1
13 | 33 | CCCCCc1ncc([C@H]2CC[C@H](CCC)CC2)cn1
14 | 144 | COc1cc(NC(C)=O)ccc1OCC(O)CN1CCN(c2ccccc2F)CC1 (stereo not given)
15 | 282 to 284 | COc1nc2ncccc2c2nc(SCc3ccccc3)nn12
16 | 240 to 242 | O=C1CCC(N2Cc3cc(CNC(=O)Nc4cc(C(F)(F)F)ccc4Cl)ccc3C2=O)C(=O)N1 (stereo not given)
17 | 233 to 235 | O=C(O)COc1cccc(CSc2nc(-c3ccccc3)c(-c3ccccc3)[nH]2)c1
18 | > 250 | O=c1[nH]cc(-c2cnccn2)cc1Br
19 | 123 to 128 | CC(Sc1cc(C(C)(C)C)c(O)c(C(C)(C)C)c1)C(=O)CC(C)(O)C(C)Sc1cc(C(C)(C)C)c(O)c(C(C)(C)C)c1 (stereo not given)
20 | 148 to 151 | O=C1c2cc(Br)ccc2CCc2ccc(S(=O)(=O)F)cc21
21 | > 395 | Cc1ccc2c(O)c3c(=O)[nH][nH]c(=O)c3nc2c1
22 | 60 to 62 | COC(=O)c1cc(I)ccc1N=C=S
23 | 165 to 166 | O=C(CC1(c2cccc(C(F)(F)F)c2F)CC1)C(=O)Nc1ccc2c(c1)COC2=O
24 | 220 to 222 | CC(C)(C)OC(=O)N[C@H]1CCN(c2nc3c(cc2F)c(=O)[nH]c(=O)n3C2CC2)C1

Row | melting point [°C] | SMILES
25 | 129 to 134 | Cc1nc(N)nc(N)c1CCCC(C)c1ccc(-c2cc(F)cc(F)c2)cc1 (stereo not given)
26 | 110 to 112 | CON(C)C(=O)Nc1ccc(OCCc2ccc(C)cn2)cc1
27 | 192 | N#Cc1ccc(-c2ccc(Cl)c(OC3SCC(O)C(O)C3O)c2)cn1 (stereo not given)
28 | 208 to 209 | COc1cn(-c2ccc(N3CCN(C)C3=O)cc2F)nc(-c2ccnn2-c2ccccc2)c1=O
29 | 125 to 128 | Cc1cc(C)c2c(c1C)OC1(CCN(Cc3ccccc3)CC1)C2c1ccc(C(C)C)cc1 (stereo not given)
30 | 188 to 189 | Cc1ccc(-n2nc3c(cc2=O)CCc2cnccc2-3)cc1
31 | 201 to 203 | N#Cc1ccc(-c2ccc(O)c(C(F)(F)F)c2)cc1
32 | 105 | CCCCC(CC)COC(=O)Nc1ccc(C=C(C#N)C(=O)OCC)cc1 (stereo not given)
33 | 59 to 60 | NC(=O)CC(O)COC(c1ccccc1)(c1ccccc1)c1ccccc1 (stereo not given)
34 | > 200 | O=C1Nc2ccccc2C12COc1cc(F)c(F)cc12 (stereo not given)
35 | 142 to 143 | CC1(C)OC[C@H](c2cnc(NC(=O)C(C)(C)C)cn2)O1
36 | 134 to 135 | COc1cccc(-c2nc(-c3ccccc3)c3ncc(-c4cccnc4)cc3n2)c1
37 | 102 to 103 | CNC1=NN(C(=O)C(C)(C)C)C(C)S1 (stereo not given)
38 | 238 to 240 | Nc1cccc2cc(C(=O)N3CCc4ccccc4C3)cnc12
39 | 230 to 233 | O=CNCC1CN(c2c(F)cc3c(=O)c(C(=O)O)cn(-c4ccc(F)cc4F)c3c2F)CCO1 (stereo not given)
40 | 101 to 102 | CS(=O)(=O)c1ccccc1CNC(=O)[C@@H]1CCCN(c2cccc3c2C(=O)N(Cc2ccncc2)C3=O)C1
41 | 165 to 167 | O=C(c1ccc(Cl)nc1)N1Cc2cccn2Cc2ccccc21
42 | 193 to 195 | COc1ncnc(OC)c1NC(=O)CCl
43 | 191 to 194 | COc1ccc(C(=O)Nc2c(C)c(C)c3c(c2C)C(c2ccc(F)cc2)C(C)(C)O3)cc1 (stereo not given)
44 | > 250 | Cn1c(CN2C(=O)C3(COc4cc5c(cc43)OCO5)c3ccccc32)nc2ccccc21 (stereo not given)
45 | 204 to 206 | COC(=O)c1ccc(-c2nsc3nc4ccccc4n23)cc1
46 | 80 to 81 | CC(C)C(=O)NC1C=CC(CO)C1 (stereo not given)
47 | 192 to 194 | O=C(CCl)Nc1ccc(-c2nc3ccccc3s2)cc1I
48 | 149 to 151 | C[C@H](C(=O)O)n1ccn(-c2ccc(OCC(F)(F)C(F)F)cc2)c1=O

Row | melting point [°C] | SMILES
49 | 198 to 200 | COc1ccc2[nH]c3c(c2c1)CCN(C(C)=O)C3C (stereo not given)
50 | 182 to 184 | CCN1C(=O)Nc2ccc(Cl)cc2C1(O)c1ccccc1 (stereo not given)
51 | 169 to 171 | CCOC(=O)Nc1sc(C)c(C#N)c1S(=O)(=O)NC(=S)NC(C)C
52 | 137 to 138 | OCCN1CCN(c2onc3c2CCc2ccccc2-3)CC1
53 | 202 to 204 | C#CCOc1cc(-n2c(=O)cc(C(F)(F)F)[nH]c2=O)ccc1C
54 | 233 | COc1cc(Cc2cnc(N)nc2N)cc(-c2ccc(O)cc2)c1OC
55 | 124 to 126 | CCOC(=O)c1cc2c(Cl)c(OC)c(OC)cc2s1
56 | 38 to 40 | COc1ccc(C(=O)CC(C)C)cc1OCCCO
57 | 94 to 95 | CC(=O)NCS[C@@H]1CC(=O)N(Cc2ccc(Oc3ccc(F)cc3)nc2)C1
58 | 117 to 120 | O=C(Cl)C=C(c1ccccc1)c1ccc([N+](=O)[O-])cc1
59 | 182 to 186 | COc1ccc(-c2nc(C)c(Cl)[nH]2)cc1
60 | 71 to 75 | CCN(CCO)Cc1cc(Nc2nc(Nc3cc4c(cc3OC)CCN(CC(=O)N(C)C)CC4)ncc2Cl)ccc1F
61 | 205 to 207 | CC(C)n1nc(-c2sc(NC(=O)Oc3ccccc3)nc2-c2ccccc2)ccc1=O
62 | 196 to 197 | Nc1c(-c2cccc(Oc3ccccc3)c2)c(=O)[nH]c2cc(Cl)ccc12
63 | 150 to 152 | Cc1ccc(Oc2ccc(C3NC(C(=O)O)CS3)cc2C#N)c(O)c1 (stereo not given)
64 | 100 | CC(C)CNC(=O)C(C)(C)N=NC(C)(C)C(=O)NCC(C)C
65 | 148 | COc1ccc(CN(C)CCCSc2ccc(NC(=O)c3cccc4c(=O)c5ccccc5sc34)cc2)cc1OC
66 | 60 to 62 | CCCCC(CC)COc1ccc2cc3cc(OCC(CC)CCCC)ccc3cc2c1 (stereo not given)
67 | 142 to 143 | CC(C)(C)COc1cccc(C[C@@H](NC(=O)c2cccc3c(Cl)cccc23)[C@@H](O)c2cccc(Cl)c2)c1 (racemic)
68 | 84 to 85 | CON1CCCNC1=C[N+](=O)[O-]
69 | 290 to 291 | CC1CCc2c(Cl)ccc3c(=O)c(C(=O)O)cn1c23 (stereo not given)
70 | 198 to 203 | OC1CSC(Oc2cncc(-c3ccc(F)c(F)c3)c2)C(O)C1O (stereo not given)
71 | 125 to 126 | COc1ccc(S(=O)(=O)N2CC(C)(C)CN(S(=O)(=O)c3ccc(OC)cc3)C2C(=O)NO)cc1
72 | 134 to 138 | O=[N+]([O-])c1ccc(Sc2ccc(C(F)(F)F)cc2)c2nonc12

Row | melting point [°C] | SMILES
73 | 152 to 155 | CC(=O)C(=NNc1ccc(Oc2ccccc2)cc1)Sc1ccc(Cl)cc1
74 | 146 to 147 | CC1(C)Oc2cc(Br)sc2[C@@H](N2CCCCC2=O)[C@@H]1OCc1ccccc1 (relative stereo)
75 | 57 to 59 | CCOC(=O)c1ccc(NC(C)=O)c(CN(CC)CC)c1
76 | 184 to 186 | COC(=O)/C=C/n1cnc2ccc(OC)cc2c1=O
77 | 163 to 165 | O=C(O)C1CCCc2[nH]c3ccccc3c21 (stereo not given)
78 | 104 | CCCCCCCCOc1ccc(-c2ccc(OC(F)F)cc2)cc1
79 | 217 to 219 | CS(=O)(=O)Nc1cc(C(c2cc(F)ccc2F)S(=O)(=O)c2ccc(Cl)cc2)c(F)cn1 (stereo not given)
80 | 194 | Oc1ccc2c(c1)nc(NC1CCN(CCNc3ncccn3)CC1)n2Cc1ccc(F)cc1
81 | 237 to 238 | CSc1cc(Cl)nn2c(-c3ccnc(N)c3)c(-c3ccc(F)c(C)c3)nc12
82 | 81 to 82 | Cc1c(CBr)oc2ccc(Cl)cc12
83 | 165 to 168 | Cc1nn(-c2ccc(Cl)nn2)c(C)c1N
84 | 114 | c1ccc(OCCCN2CCC(CNc3nc4ccccc4s3)CC2)cc1
85 | 210 | COC(=S)c1nc(-c2ccccc2)c(N)nc1N
86 | 102 | COCCOc1ccc(CCCNS(=O)(=O)CCCc2ccccc2)c(Oc2ncc(C(F)(F)F)cc2Cl)c1
87 | 148 to 158 | COC(=O)c1csc2c(=O)cc(C(F)(F)F)oc12
88 | 166 to 170 | CC1(C)Nc2cc(Cl)ccc2NC1=O
89 | 54 to 57 | CCOC(=O)c1cc2ccccc2n(C(C)C)c1=O
90 | 110 to 112 | COC(N)C(=O)NC(=O)OCc1ccccc1 (stereo not given)
91 | 185 to 190 | COC(=O)N1CCN2c3ccc(N4CC(CNC(C)=O)OC4=O)cc3OCC2C1 (stereo not given)
92 | 173 to 174 | Cc1ccn(-c2ccc(S(C)(=O)=O)cc2)c1-c1ccc(Cl)cc1
93 | 227 to 228 | Fc1cccc(Cl)c1[C@@H]1C[C@H](c2ccc(Cl)cc2)Nc2ncnn21 (relative stereo)
94 | 206 to 207 | CCCN1c2ncccc2C(=O)N(C)c2ccc(-c3cn[nH]c3)nc21
95 | > 300 | COn1cc(C(=O)O)c(=O)c2c3sc(=O)n(C)c3ccc21
96 | 75 to 78 | CCCc1nc(-n2cccc2)c(C#N)[nH]1

Row | SMILES | melting point [°C]
97 | Cc1cc(Cl)cc(C(=O)NC(C)C2CC2)c1NC(=O)c1cc(Br)nn1-c1ncccc1Cl (stereo not given) | 182 to 183
98 | CCCN(CCC)Cc1nnc(-c2ncn3c2[C@@H]2CCN2C(=O)c2c(Cl)cccc2-3)o1 | 134 to 136
99 | O=[N+]([O-])c1nccn1CC(O)CN1C2CCCCCC21 (stereo not given) | 91 to 91.5
100 | CC12CC(=O)C3C(C=CC4=CC(=O)CCC43C)C1CCC2=O (stereo not given) | 237
